Assays:
Type in all cases: in vivo
[1] = tested on: Italian ryegrass (Lolium multiflorum); experiment: Test A preemergence, visual injury rating
Method in brief: (§1)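 Scoring: eye-based comparison with untreated controls, 0 for no effect through 100 for complete control, at about day 10. Treatments: directed soil spray preemergence; foliar spray postemergence on 2–10 cm plants at the one- to two-leaf stage. Medium: loam soil with sand.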

[2] = tested on: barnyardgrass (Echinochloa crus-galli); experiment: Test A preemergence, visual injury rating
Method in brief: as §1

[3] = tested on: giant foxtail (Setaria faberii); experiment: Test A preemergence, visual injury rating
Method in brief: as §1

[4] = tested on: kochia (Kochia scoparia); experiment: Test A preemergence, visual injury rating
Method in brief: as §1

[5] = tested on: pigweed (Amaranthus retroflexus); experiment: Test A preemergence, visual injury rating
Method in brief: as §1

[6] = tested on: ragweed (common ragweed, Ambrosia elatior); experiment: Test A preemergence, visual injury rating
Method in brief: as §1

[7] = tested on: Italian ryegrass (Lolium multiflorum); experiment: Test A postemergence, visual injury rating; details: 0 is no effect, 100 is complete control; for Ryegrass, Italian plant response rating: 0 to 100 scale, approximately 10 days
Method in brief: as §1

[8] = tested on: barnyardgrass (Echinochloa crus-galli); experiment: Test A postemergence, visual injury rating; details: 0 is no effect, 100 is complete control; for Barnyardgrass plant response rating: 0 to 100 scale, approximately 10 days
Method in brief: as §1

[9] = tested on: blackgrass (Alopecurus myosuroides); experiment: Test A postemergence, visual injury rating; details: 0 is no effect, 100 is complete control; for Blackgrass plant response rating: 0 to 100 scale, approximately 10 days
Method in brief: as §1

[10] = tested on: corn (Zea mays); experiment: Test A postemergence, visual injury rating; details: 0 is no effect, 100 is complete control; for Corn plant response rating: 0 to 100 scale, approximately 10 days
Method in brief: as §1

[11] = tested on: galium (catchweed bedstraw, Galium aparine); experiment: Test A postemergence, visual injury rating; details: 0 is no effect, 100 is complete control; for Galium plant response rating: 0 to 100 scale, approximately 10 days
Method in brief: as §1

[12] = tested on: giant foxtail (Setaria faberii); experiment: Test A postemergence, visual injury rating; details: 0 is no effect, 100 is complete control; for Foxtail, Giant plant response rating: 0 to 100 scale, approximately 10 days
Method in brief: as §1

[13] = tested on: kochia (Kochia scoparia); experiment: Test A postemergence, visual injury rating; details: 0 is no effect, 100 is complete control; for Kochia plant response rating: 0 to 100 scale, approximately 10 days
Method in brief: as §1

[14] = tested on: pigweed (Amaranthus retroflexus); experiment: Test A postemergence, visual injury rating; details: 0 is no effect, 100 is complete control; for Pigweed plant response rating: 0 to 100 scale, approximately 10 days
Method in brief: as §1

[15] = tested on: ragweed (common ragweed, Ambrosia elatior); experiment: Test A postemergence, visual injury rating; details: 0 is no effect, 100 is complete control; for Ragweed plant response rating: 0 to 100 scale, approximately 10 days
Method in brief: as §1

[16] = tested on: wheat (Triticum aestivum); experiment: Test A postemergence, visual injury rating; details: 0 is no effect, 100 is complete control; for Wheat plant response rating: 0 to 100 scale, approximately 10 days
Method in brief: as §1

[17] = tested on: barnyardgrass (Echinochloa crus-galli); experiment: Test B flooded paddy test, plant response rating; details: 250 g ai/ha; Flood; scale of 0 to 100 where 0 is no effect and 100 is complete control; 13 to 15 days
Method in brief: (§2)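 Greenhouse pots flooded to 3 cm above soil at time of treatment received compound via the water, which stayed at that level.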

[18] = tested on: ducksalad (Heteranthera limosa); experiment: Test B flooded paddy test, plant response rating; details: 250 g ai/ha; Flood; scale of 0 to 100 where 0 is no effect and 100 is complete control; 13 to 15 days
Method in brief: as §2

[19] = tested on: rice (Oryza sativa); experiment: Test B flooded paddy test, plant response rating; details: 250 g ai/ha; Flood; scale of 0 to 100 where 0 is no effect and 100 is complete control; 13 to 15 days
Method in brief: as §2

[20] = tested on: sedge, umbrella (small-flower umbrella sedge, Cyperus difformis); experiment: Test B flooded paddy test, plant response rating; details: 250 g ai/ha; Flood; scale of 0 to 100 where 0 is no effect and 100 is complete control; 13 to 15 days
Method in brief: as §2

[21] = 31 g ai/ha, 0 to 100 scale, 0 no effect, 100 complete control
[22] = 125 g ai/ha, 0 to 100 scale (0 no effect, 100 complete control)

Row | SMILES | Plant response rating, Ryegrass, Italian [1, 21] | Plant response rating, Barnyardgrass [2, 21] | Plant response rating, Foxtail, Giant [3, 21] | Plant response rating, Kochia [4, 21] | Plant response rating, Pigweed [5, 21] | Plant response rating, Ragweed [6, 21] | Ryegrass, Italian plant response rating ([7]; 31 g ai/ha) | Barnyardgrass plant response rating ([8]; 31 g ai/ha) | Blackgrass plant response rating ([9]; 31 g ai/ha) | Corn plant response rating ([10]; 31 g ai/ha) | Galium plant response rating ([11]; 31 g ai/ha) | Foxtail, Giant plant response rating ([12]; 31 g ai/ha) | Kochia plant response rating ([13]; 31 g ai/ha) | Pigweed plant response rating ([14]; 31 g ai/ha) | Ragweed plant response rating ([15]; 31 g ai/ha) | Wheat plant response rating ([16]; 31 g ai/ha) | Plant response rating, Barnyardgrass [17] | Plant response rating, Ducksalad [18] | Plant response rating, Rice [19] | Plant response rating, Sedge, Umbrella [20] | further results
1 | C=C(Cl)COC(=O)c1c(Br)cccc1Oc1ncc(Cl)cn1 [Compound 2] | 0 | 10 | 70 | 30 | 40 | 0 | 0 | 30 | 0 | 10 | 60 | 30 | 50 | 60 | 0 | 0 | 0 | 30 | 0 | 100 | Ryegrass, Italian plant response rating [1, 22]: 10; Barnyardgrass plant response rating [2, 22]: 50; Foxtail, Giant plant response rating [3, 22]: 100; Kochia plant response rating [4, 22]: 70; Pigweed plant response rating [5, 22]: 90; Ragweed plant response rating [6, 22]: 0; Ryegrass, Italian plant response rating (0 to 100 scale) ([7]; 125 g ai/ha): 20; Barnyardgrass plant response rating (0 to 100 scale) ([8]; 125 g ai/ha): 40; Blackgrass plant response rating (0 to 100 scale) ([9]; 125 g ai/ha): 30; Corn plant response rating (0 to 100 scale) ([10]; 125 g ai/ha): 20; Galium plant response rating (0 to 100 scale) ([11]; 125 g ai/ha): 90; Foxtail, Giant plant response rating (0 to 100 scale) ([12]; 125 g ai/ha): 60; Kochia plant response rating (0 to 100 scale) ([13]; 125 g ai/ha): 90; Pigweed plant response rating (0 to 100 scale) ([14]; 125 g ai/ha): 80; Ragweed plant response rating (0 to 100 scale) ([15]; 125 g ai/ha): 0; Wheat plant response rating (0 to 100 scale) ([16]; 125 g ai/ha): 0
2 | O=C(OCCC1CC1)c1c(Br)cccc1Oc1ncc(Cl)cn1 [Compound 123] | 0 | 20 | 40 | 0 | 0 | 0 | 0 | 10 | 10 | 10 | 90 | 20 | 50 | 70 | 0 | 0 | 40 | 95 | 35 | 95 | Plant response rating, Ryegrass, Italian [1, 22]: 20; Plant response rating, Barnyardgrass [2, 22]: 70; Plant response rating, Foxtail, Giant [3, 22]: 100; Plant response rating, Kochia [4, 22]: 10; Plant response rating, Pigweed [5, 22]: 80; Plant response rating, Ragweed [6, 22]: 0; Ryegrass, Italian plant response rating ([7]; 125 g ai/ha): 20; Barnyardgrass plant response rating ([8]; 125 g ai/ha): 50; Blackgrass plant response rating ([9]; 125 g ai/ha): 50; Corn plant response rating ([10]; 125 g ai/ha): 10; Galium plant response rating ([11]; 125 g ai/ha): 100; Foxtail, Giant plant response rating ([12]; 125 g ai/ha): 50; Kochia plant response rating ([13]; 125 g ai/ha): 90; Pigweed plant response rating ([14]; 125 g ai/ha): 100; Ragweed plant response rating ([15]; 125 g ai/ha): 10; Wheat plant response rating ([16]; 125 g ai/ha): 0

From US11053204B2, “Pyrimidinyloxy benzene derivatives as herbicides” (FMC Corporation, priority 2015, dated 2021)
